The test system of test [1] is Felis catus. Briefly: In vivo beta-2 adrenergic receptor blocking activity in iv dosed cat assessed as half dose required for desensitizing isoproterenol-induced diastolic hypotensive response after 3.5 mins. The class given is functional.
The subject of the next test is Canis familiaris. Briefly: Antiarrhythmic activity in iv dosed dog assessed as dose required for reversal of ouabain-induced cardiac arrhythmia. The class given is functional, Canis lupus familiaris, Heart.
For test [2], the system named is Felis catus. Briefly: In vivo beta-1 adrenergic receptor blocking activity in iv dosed cat assessed as half dose required for desensitizing isoproterenol-induced tachycardia after 3.5 mins. The class given is functional.
Test [3] concerns Felis catus. Briefly: Ratio of in vivo beta-2 adrenergic receptor blocking activity in iv dosed cat assessed as half dose required for desensitizing isoproterenol-induced diastolic hypotensive response to in vivo beta-1 adrenergic receptor blocking activity in iv dosed cat assessed as half dose required for desensitizing isoproterenol-induced tachycardia. The class given is functional.

Results on 15 compounds are retold here after ChEMBL document CHEMBL3272136, “A new series of cardioselective adrenergic beta-receptor blocking compounds. 1-(2-Acyl-4-acylaminophenoxy)-3-isopropylaminopropan-2-ols” (1976).

For the compound `CCCCC(=O)Nc1ccc(OCC(O)CNC(C)C)c(C(C)=O)c1` (centres undefined), the figures for the Activity in the test on Felis catus [1], in the test on Canis familiaris and in the test on Felis catus [2] were 0.89 mg/kg, 4.8 mg/kg and 0.033 mg/kg, respectively. In addition, in the test with Felis catus [3], the Ratio is given as 27.
Take `CCCCCC(=O)Nc1ccc(OCC(O)CNC(C)C)c(C(C)=O)c1` (centres undefined): the Activity stood at 0.85 mg/kg with Felis catus [1], 3.2 mg/kg in the test with Canis familiaris and 0.029 mg/kg with Felis catus [2]. For the same compound, the Ratio in the test on Felis catus [3] was 29.31.
As to `CCCCCCC(=O)Nc1ccc(OCC(O)CNC(C)C)c(C(C)=O)c1` (centres undefined), the Activity is 0.5 mg/kg in the test with Felis catus [1], 2.7 mg/kg in the test with Canis familiaris and 0.04 mg/kg in the test on Felis catus [2]. The Ratio in the test on Felis catus [3] was determined as 12.5.
The matching figures for `CCC(=O)Nc1ccc(OCC(O)CNC(C)C)c(C(=O)CC)c1` (centres undefined): 0.41 mg/kg, 6.4 mg/kg, 0.026 mg/kg and 15.77.
Consider `CCCC(=O)Nc1ccc(OCC(O)CNC(C)C)c(C(=O)CC)c1` (centres undefined), for which the Activity in the test on Felis catus [1] came to 1.12 mg/kg; in the test with Canis familiaris it was 6.1 mg/kg; with Felis catus [2], 0.079 mg/kg. Besides, the Ratio in the test on Felis catus [3] is 14.18.
`CCCC(=O)Nc1ccc(OCC(O)CNC(C)C)c(C(=O)CCC)c1` (centres undefined): the results for the Activity in the test on Felis catus [1], with Canis familiaris and in the test with Felis catus [2] were 4.78 mg/kg, 3.5 mg/kg and 0.23 mg/kg, respectively. The Ratio in the test with Felis catus [3] worked out at 20.78.
For `CC(=O)c1cc(NC(=O)C(C)C)ccc1OCC(O)CNC(C)C` (centres undefined), in that order: 1.85 mg/kg, 17.2 mg/kg, 0.1 mg/kg and 18.5.
For `CC(=O)c1cc(NC(=O)CC(C)C)ccc1OCC(O)CNC(C)C` (centres undefined), in that order: 2.1 mg/kg, 3.8 mg/kg, 0.11 mg/kg and 19.09.
The matching figures for `CC(=O)c1cc(NC(=O)Cc2ccccc2)ccc1OCC(O)CNC(C)C` (centres undefined): 0.16 mg/kg, 12.6 mg/kg, 0.03 mg/kg and 5.33.
Regarding `CC(=O)c1cc(NC(=O)c2ccccc2)ccc1OCC(O)CNC(C)C` (centres undefined), the Activity in the test with Felis catus [1] was 1 mg/kg; in the test with Canis familiaris it was 5.8 mg/kg; in the test with Felis catus [2], 0.54 mg/kg.
With `CCC(=O)Nc1ccc(OCC(O)CNC(C)C)c(C(C)=O)c1` (racemic), the Activity came out at 0.52 mg/kg with Felis catus [1], 22.5 mg/kg with Canis familiaris and 0.063 mg/kg with Felis catus [2]. The Ratio in the test with Felis catus [3] was found to be 8.25.
The matching figures for `CCCCCCCC(=O)Nc1ccc(OCC(O)CNC(C)C)c(C(C)=O)c1` (racemic): 0.692 mg/kg, 3.9 mg/kg, 0.05 mg/kg and 13.84.
For `CCCC(=O)Nc1ccc(OCC(O)CNC(C)C)c(C(C)=O)c1` (centres undefined) [ACEBUTOLOL], in that order: 2.6 mg/kg, 8.1 mg/kg, 0.13 mg/kg and 20.
The matching figures for `CC(=O)Nc1ccc(OCC(O)CNC(C)C)c(C(C)=O)c1` (centres undefined) [DIACETOLOL]: 0.32 mg/kg, above 15 mg/kg, 0.089 mg/kg and 3.59.
On to `CC(=O)Nc1ccc(OCC(O)CNC(C)C)cc1` (centres undefined) [PRACTOLOL], for which the figures for the Activity in the test with Felis catus [1], in the test on Canis familiaris and in the test with Felis catus [2] were 1.6 mg/kg, above 35 mg/kg and 0.158 mg/kg, respectively. Besides, the Ratio in the test on Felis catus [3] is 10.13.
